Results from patent publication US20260062414A1, “NOVEL COCRYSTALS OF METHYLXANTHINES, THEIR POLYMORPHS AND PROCESS THEREOF” (FERTIS INDIA PVT LTD, priority 2022, published 2026).

Test: Dissolution studies of cocrystals
Conditions: for Release rate of active ingredient compared to pure form: dissolution study, cocrystal vs pure methylxanthine
Method: In an embodiment, the dissolution study of the cocrystals of Methylxanthines with the coformers Pterostilbene and Resveratrol were evaluated.

Row | Compound | Bioavailability compared to pure form | Release rate of active ingredient compared to pure form | Solubility compared to pure form
1 | COc1cc(/C=C/c2ccc(O)cc2)cc(OC)c1.Cn1c(=O)c2c(ncn2C)n(C)c1=O [CA:PB, Caffeine: Pterostilbene] | more bioavailable | slow-release rate | –
2 | COc1cc(/C=C/c2ccc(O)cc2)cc(OC)c1.COc1nc2c(c(=O)n1C)n(C)c(=O)n2C [ML:PB, Methylliberine: Pterostilbene] | more bioavailable | slow-release rate | lower solubility
3 | COc1cc(/C=C/c2ccc(O)cc2)cc(OC)c1.Cn1c(=O)[nH]c2ncn(C)c2c1=O [PX:PB, Paraxanthine: Pterostilbene (1:1) Cocrystal] | more bioavailable | slow-release rate | lower solubility
4 | COc1cc(/C=C/c2ccc(O)cc2)cc(OC)c1.Cn1cnc2c1c(=O)[nH]c(=O)n2C [TB:PB, Theobromine: Pterostilbene (1:1) Cocrystal] | better bioavailability | – | improved solubility
5 | COc1cc(/C=C/c2ccc(O)cc2)cc(OC)c1.Cn1c(=O)c2c(n(C)c1=O)n(C)c(=O)n2C [TC:PB, Theacrine: Pterostilbene] | more bioavailable | slow-release rate | lower solubility
6 | Cn1c(=O)c2[nH]cnc2n(C)c1=O.Oc1ccc(/C=C/c2cc(O)cc(O)c2)cc1 [TP:RS, Theophylline: Resveratrol (1:1) Cocrystal] | more bioavailable | slow-release rate | lower solubility
